Results reported in US10987351B2, “RORgamma modulators and uses thereof” (Genfit, priority 2017, dated 2021).
Several values for one entry are separate records, joined by “and”; a condition that tells them apart may be missing. Equal entries are not always repeated.

How the values were obtained:
human RORγt [1] = target: T1, human RORγt (Homo sapiens, UniProt P51449); test: RORE Luciferase/RORγt transactivation assay; type: cell-based; parameters: the full-length cDNA of human RORγt; V5-His (encoded by the vector); expressed in transfected cells; host or cells: COS-7 (monkey kidney); settings: COS-7 cells transfected with human IL-17 promoter luciferase reporter and RORγt plasmid, 20 h; read-out: IC50, RORγt activity inhibition (luciferase reporter)
T1 sequence (P51449 1-497 isoform P51449-2): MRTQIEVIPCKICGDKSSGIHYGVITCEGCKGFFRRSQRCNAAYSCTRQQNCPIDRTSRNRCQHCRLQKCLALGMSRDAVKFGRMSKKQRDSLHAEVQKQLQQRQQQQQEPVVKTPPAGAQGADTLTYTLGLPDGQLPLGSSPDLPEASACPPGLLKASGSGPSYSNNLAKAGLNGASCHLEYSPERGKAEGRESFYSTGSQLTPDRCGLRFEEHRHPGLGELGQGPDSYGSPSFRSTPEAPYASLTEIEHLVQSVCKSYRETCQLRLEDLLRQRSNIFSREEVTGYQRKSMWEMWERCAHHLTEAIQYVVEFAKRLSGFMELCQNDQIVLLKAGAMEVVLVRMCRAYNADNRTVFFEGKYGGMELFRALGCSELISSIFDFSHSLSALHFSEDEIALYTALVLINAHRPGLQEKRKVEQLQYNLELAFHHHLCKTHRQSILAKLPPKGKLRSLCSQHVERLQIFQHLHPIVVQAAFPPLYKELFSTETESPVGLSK
Method: It is well known that RORγ binds to a conserved non-coding sequence (CNS) enhancer element in the IL-17 promoter.
Culture medium was changed every 2 days.
The 4.3 Kb human IL-17 promoter containing the RORγ-specific CNS enhancer element was PCR amplified from human genomic DNA and cloned into a pGL3-TKLuc2Cp reporter plasmid.
The luciferase reporter plasmid and the RORγt overexpression plasmid were transfected into COS-7 cell line using 4 μLJetPEI™/μg of DNA. Briefly, 150 ng of DNA (ration 1/2 between RORE-Tk Luc2Cp and cDNA RORγt or the empty vector for the negative control) was served to transfect adherent COS-7 cells in a […] culture flask, in complete medium (see cos-7 cell line culture).
Cells were then detached (using trypsin) and washed by centrifugation at 300 g for 10 minutes. Cell pellet was resuspended in serum free/phenol red free DMEM and seeded in 384 well plates at a density of 10000 cells/well and then incubated for 4 h at 37° C.
Compounds were dissolved in 100% DMSO to obtain 10 mM stock solutions. For each compound, test concentrations were diluted in serum free/phenol red free DMEM using the Genesis Freedom 200™ (TECAN) and added to the cells to obtain a 0.3% DMSO final concentration (in a final volume of 40 μL per well).
The luciferase activity was then measured with 40 μL/well steady-Glo Luciferase assay system (Promega, Madison, Wis.) and after incubation at room temperature for 30 minutes. The luminescence was estimated using the Ultra384 reader (TECAN). Data were collected and analyzed using GraphPad Prism software (GraphPad Software V5.02, San Diego Calif. USA). IC50 in μM and Emax in % were reported for each compound.

human RORγt [2] = target: T1, human RORγt; test: IL-17 secretion from EL4 murine lymphoma cells overexpressing human RORγt; type: cell-based; settings: human RORγt-transfected EL4 cells, PMA and ionomycin stimulation; read-out: IC50, inhibition of IL-17 secretion
Method: Murine EL-4 lymphoma cell line overexpressing human RORγt was used in this functional assay to assess compound ability to inhibit IL-17 cytokine secretion.
EL-4 cells are maintained in a standard culture medium RPMI supplemented with 10% fetal calf serum, 1% sodium pyruvate, 1% essential amino acids and 1% antibiotics at 37° C. in a humidified atmosphere of 5% CO02 and 95% air. Culture medium was changed every 2 days. EL4 cells were transfected with a plasmid encoding hRORγt (sequence identical to published sequence NM 001001523). […] Briefly, 1 μg of DNA/1 million cells was served to transfect EL-4 cells. Cell/DNA suspension was transferred into certified cuvette and the electroporation of RORγt plasmid was carried out using appropriate Nucleofector® program.
Cells were seeded in 96 well plates at a density of 150000 cells/I well then treated with compounds of this invention at indicated concentrations and incubated for 24 hours at 37° C. in a humidified atmosphere of 5% CO2 and 95% air. EL-4 cells were pretreated with test compounds (RORγ modulators) and stimulated with PMA (10 ng/mL) and ionomycin (1 μM final concentration) in the presence of test compound concentrations for additional 24 h at 37° C. in a humidified atmosphere of 5% CO2 and 95% air. Subsequently, supernatants were collected (after centrifugation at 300 g for 10 minutes) to determine the concentrations of IL-17 by HTRF (CisBio, France) or ELISA (R&D Systems Europe) according to the manufacturer's protocols.

[3] = target: T2, RORγt ligand-binding domain (RORγt-LBD) (Homo sapiens, UniProt P51449); test: Time-resolved FRET (TR-FRET) RORγt coactivator assay; type: biochemical; settings: GST-RORγ-LBD, biotinylated RIP140 peptide, 2 hours; read-out: IC50, coactivator-RORγt binding inhibition (TR-FRET)
T2 construct: 20 nM recombinantly expressed RORγ-LBD fused to GST
T2 sequence (P51449 269-508 limits assumed): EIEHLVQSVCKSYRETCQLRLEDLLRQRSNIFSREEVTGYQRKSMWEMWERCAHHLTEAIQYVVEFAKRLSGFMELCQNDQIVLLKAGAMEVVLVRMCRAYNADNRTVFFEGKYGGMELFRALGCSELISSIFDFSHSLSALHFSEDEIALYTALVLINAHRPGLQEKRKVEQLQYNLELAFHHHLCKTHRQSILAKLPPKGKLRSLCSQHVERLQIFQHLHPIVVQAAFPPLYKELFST
Text: Time-resolved FRET (TR-FRET) RORγt coactivator assay was used to identify RORγ modulator compounds with ligand-dependent coactivator displacement. The assay uses a d2-labeled anti-GST antibody, synthetic N-terminally biotinylated peptide which is derived from nuclear receptor coactivator protein RIP140, and a RORγt ligand-binding domain (RORγt-LBD) that is tagged with glutathione-S-transferase (GST). The influence of compounds on the RORγ-peptide interaction relies on the binding dependent energy transfer from a donor to an acceptor fluorophor attached to the binding partner of interest. […] For reduction of background from compound fluorescence, TR-FRET method makes use of generic fluorophore labels and time resolved detection.
The assays were done in a final volume of 20 μl in a 384 well plate in a CHAPS buffer (2 mM CHAPS; 1 mM DTT, 2 mM EDTA; 0.1% BSA), containing 20 nM recombinantly expressed RORγ-LBD fused to GST, 30 nM N-terminally biotinylated peptide, 1 nM streptavidin-terbium conjugate and 20 nM d2 labeled-anti-GST. Test compounds were diluted using 10 mM stock solution. The range of the final compound concentrations used in this test was from 0.3 nM to 30 μM (logarithmic scale). DMSO content of the samples was kept at 1%. The assay was equilibrated for 2 hours in the dark at room temperature in 384 well plates (Falcon). The signal was detected by an Ultra384 reader (TECAN). […] Compounds that promote coactivator displacement induce a concentration-dependent decrease in time-resolved fluorescent signal. Data were collected and analyzed using GraphPad Prism software (GraphPad Software V5.02, San Diego Calif. USA). IC50 in μM and Emax in % were reported for each compound.

Compound	IC50 (human RORγt [1])	IC50 (human RORγt [2])	IC50 [3]
COc1ccc(C(NC(=O)Cc2cc(N3CCN(C(C)=O)CC3)ccc2F)c2ccccc2)c(N2CCCCCC2)c1 (centres unmarked) [Cpd.17, 2-[5-(4-acetylpiperazin-1-yl)-2-fluorophenyl]-N-{[2-(azepan-1-yl)-4-methoxyphenyl](phenyl)methyl}acetamide]	0.1 to 1 µM	0.1 to 1 µM	< 0.1 µM
COc1ccc(C(NC(=O)Cc2cc(N3CCN(C(C)=O)CC3)ccc2C)c2ccccc2)c(N2CCCCCC2)c1 (centres unmarked) [Cpd.15, 2-[5-(4-acetylpiperazin-1-yl)-2-methylphenyl]-N-{[2-(azepan-1-yl)-4-methoxyphenyl](phenyl)methyl}acetamide]	0.1 to 1 µM	–	0.1 to 1 µM and < 0.1 µM
Cc1ccc(C(NC(=O)Cc2cccc(N3CCN(C)CC3)c2)c2ccc(C)o2)c(N2CCCCC2)c1 (centres unmarked) [Cpd.23, N-{[4-methyl-2-(piperidin-1-yl)phenyl](5-methylfuran-2-yl)methyl}-2-[3-(4-methylpiperazin-1-yl)phenyl]acetamide]	0.1 to 1 µM	–	< 0.1 µM
CC(=O)N1CCN(c2ccc(F)c(CC(=O)NC(c3ccccc3)c3ccc(C)cc3N3CCCCC3)c2)CC1 (centres unmarked) [Cpd.13, 2-[5-(4-acetylpiperazin-1-yl)-2-fluorophenyl]-N-{[4-methyl-2-(piperidin-1-yl)phenyl](phenyl)methyl}acetamide]	0.1 to 1 µM	–	< 0.1 µM
CC(=O)N1CCN(c2ccc(CC(=O)NC(CC(C)C)c3ccccc3N3CCCCC3)cc2)CC1 (centres unmarked) [Cpd.2, 2-[4-(4-acetylpiperazin-1-yl)phenyl]-N-{3-methyl-1-[2-(piperidin-1-yl)phenyl]butyl}acetamide]	0.1 to 1 µM	–	0.1 to 1 µM
Cc1ccc(C(NC(=O)Cc2cccc(N3CCN(C(=O)C(F)(F)F)CC3)c2)c2ccc(C)o2)c(N2CCCCC2)c1 (centres unmarked) [Cpd.25, N-{[4-methyl-2-(piperidin-1-yl)phenyl](5-methylfuran-2-yl)methyl}-2-{3-[4-(trifluoroacetyl)piperazin-1-yl]phenyl}acetamide]	< 0.1 µM	–	0.1 to 1 µM
Cc1ccc(C(NC(=O)Cc2cc(N3CCNCC3)ccc2C)c2ccc(C)o2)c(N2CCCCC2)c1 (centres unmarked) [Cpd.9, N-{[4-methyl-2-(piperidin-1-yl)phenyl](5-methylfuran-2-yl)methyl}-2-[2-methyl-5-(piperazin-1-yl)phenyl]acetamide]	1 to 10 µM	–	0.1 to 1 µM
Cc1ccc(C(NC(=O)Cc2cc(N3CCN(C(=O)OC(C)(C)C)CC3)ccc2C)c2ccc(C)o2)c(N2CCCCC2)c1 (centres unmarked) [Cpd.8, tert-butyl 4-{4-methyl-3-[({[4-methyl-2-(piperidin-1-yl)phenyl](5-methylfuran-2-yl)methyl}carbamoyl)methyl]phenyl}piperazine-1-carboxylate]	0.1 to 1 µM	–	1 to 10 µM
Cc1ccc(C(NC(=O)Cc2cc(N3CCC(S(C)(=O)=O)CC3)ccc2F)c2ccc(C)o2)c(N2CCCCC2)c1 (centres unmarked) [Cpd.21, 2-[2-fluoro-5-(4-methanesulfonylpiperidin-1-yl)phenyl]-N-{[4-methyl-2-(piperidin-1-yl)phenyl](5-methylfuran-2-yl)methyl}acetamide]	< 0.1 µM	–	< 0.1 µM
Cc1ccc(C(NC(=O)Cc2cc(N3CCNCC3)ccc2F)c2ccccc2)c(N2CCCCC2)c1 (centres unmarked) [Cpd.7, 2-[2-fluoro-5-(piperazin-1-yl)phenyl]-N-{[4-methyl-2-(piperidin-1-yl)phenyl](phenyl)methyl}acetamide]	> 10 µM	–	1 to 10 µM
Cc1ccc(C(NC(=O)Cc2cc(N3CCN(C(=O)OC(C)(C)C)CC3)ccc2C)c2ccccc2)c(N2CCCCC2)c1 (centres unmarked) [Cpd.5, tert-butyl 4-{4-methyl-3-[({[4-methyl-2-(piperidin-1-yl)phenyl](phenyl)methyl}carbamoyl)methyl]phenyl}piperazine-1-carboxylate]	> 10 µM	–	1 to 10 µM
Cc1ccc(C(NC(=O)Cc2cccc(N3CCN(S(N)(=O)=O)CC3)c2)c2ccc(C)o2)c(N2CCCCC2)c1 (centres unmarked) [Cpd.24, N-{[4-methyl-2-(piperidin-1-yl)phenyl](5-methylfuran-2-yl)methyl}-2-[3-(4-sulfamoylpiperazin-1-yl)phenyl]acetamide]	0.1 to 1 µM	–	–
Cc1ccc(C(NC(=O)Cc2cc(N3CCN(C(=O)OC(C)(C)C)CC3)ccc2F)c2ccccc2)c(N2CCCCC2)c1 (centres unmarked) [Cpd.4, tert-butyl 4-{4-fluoro-3-[({[4-methyl-2-(piperidin-1-yl)phenyl](phenyl)methyl}carbamoyl)methyl]phenyl}piperazine-1-carboxylate]	0.1 to 1 µM	–	–
Cc1ccc(C(NC(=O)Cc2cccc(N3CCC(S(C)(=O)=O)CC3)c2)c2ccc(C)o2)c(N2CCCCC2)c1 (centres unmarked) [Cpd.22, 2-[3-(4-methanesulfonylpiperidin-1-yl)phenyl]-N-{[4-methyl-2-(piperidin-1-yl)phenyl](5-methylfuran-2-yl)methyl}acetamide]	< 0.1 µM	–	< 0.1 µM
Cc1ccc(C(NC(=O)Cc2cc(N3CCNCC3)ccc2C)c2ccccc2)c(N2CCCCC2)c1 (centres unmarked) [Cpd.6, N-{[4-methyl-2-(piperidin-1-yl)phenyl](phenyl)methyl}-2-[2-methyl-5-(piperazin-1-yl)phenyl]acetamide]	1 to 10 µM	–	1 to 10 µM
